From patent US20240247235A1, “niPSCs DERIVED FROM SOMATIC CELLS” (UNIVERSITA' DEGLI STUDI DI PADOVA, priority 2018, published 2024)

Key:
primed iPS cells = assay: Expansion of mixed primed- and naïve-like colonies generated in CCC with FGF receptor inhibitor; format: cell-based, human; settings: expanded with inhibitor
Protocol: Side-by-side experiments comparing μF and CCC were performed. Generation of niPSCs in μF was robust (100% of channels contained colonies, with an efficiency of 3.7%+1.0 and 3.1%+0.4 from BJ and HFF-1, respectively, FIG. 9a). Conversely, in CCC only 25% of wells contained naïve-like colonies, with efficiency of 0.2% and 0.04%.

Human fibroblasts = assay: mmRNA (OSKMN) reprogramming of fibroblasts to naïve-like iPSC colonies in microfluidics; format: cell-based
Protocol: Microfluidic channels were coated with 25 μg/ml fibronectin (Sigma Aldrich) for 30 min at room temperature. Somatic cells were seeded on day −1 of reprogramming at 25 cells/mm^2 for feeder-free reprogramming in DMEM/10% FBS. Such seeding density allowed robust proliferation and survival of somatic cells during reprogramming. On day 0, 2 hours before the first mmRNA transfection, the medium was changed to PRM, a medium optimized from mRNA transfection and previously used for derivation of primed PSCs (StemMACS ReproBREW XF, Miltenyi biotec). When indicated, 1 μM CH, 1 μM CH and 5 μM Ri were added to PRM. Transfection period is of 9 h. Cells were transfected daily at 9 am, and fresh PRM was given daily at 6 pm. On day 6, medium was changed with a naïve supporting medium according to table 1 and the same regime of transfection and fresh medium change was maintained until day 12. From day 0 to 12, media were supplemented with 200 ng/mL^−1 B18R (eBioscience). Transfections using a OSKMN+nGFP mmRNA mix (POU5F1, SOX2, KLF4, c-MYC, NANOG, nuclear GFP) were started on day 0 and daily repeated for 12 d. […]
Freshly-derived colonies were then cultured for 3 days without mmRNAs (day 15) to allow their complete clearance, and analyzed in situ for naïve or primed associated markers. […] Success rate, measured as the percentage of microfluidic channels containing naïve-like colonies, was evaluated (FIG. 3c). […]

In the case of CCN(CC)CCCCNc1ncc2cc(-c3cc(OC)cc(OC)c3)c(NC(=O)NC(C)(C)C)nc2n1 [PD173074], the “Effect on primed iPS cells in mixed primed/naïve culture” value (primed iPS cells) is reported as “primed iPS cells were eliminated”.

In the case of Cc1c[nH]c(-c2cnc(NCCNc3ccc(C#N)cn3)nc2-c2ccc(Cl)cc2Cl)n1 [CH, CHIR99021], the “Formed naïve-like colonies, inhibitor added to PRM during the first 6 days” value (Human fibroblasts; PRM + 1 μM CHIR99021 days 0-6, then 2LiGo+KSR, compared with other inhibitor combinations (FIG. 3b)) is reported as “Best results in term of formed colonies”.

For C[C@@H](N)[C@H]1CC[C@H](C(=O)Nc2ccncc2)CC1 [ROCK inhibitor, Y27632], the “Effect on colony formation efficiency” value (Human fibroblasts; added to reprogramming in 2iLGo+KSR, OSKMN mmRNA, microfluidics (FIG. 3c-e)) was “increased colony formation efficiency”.
